Source: patent US6377057B1, “Classification of biological agents according to the spectral density signature of evoked changes in cellular electric potential” (priority 1999, dated 2002)

Test system: embryonic chick myocardial cells
Type: cell-based

Row | SMILES | PSD ratio (PSD after agent ÷ PSD before agent), modulation function of the action potential | PSD modulation function of the action potential (additional data, concentration not given)
1 | CNC[C@H](O)c1ccc(O)c(O)c1 [Epinephrine] | enhanced the power of the AP across a 2 kHz bandwidth with a slight bandpass effect observed | –
2 | CC[N+](CC)(CC)CC(=O)Nc1c(C)cccc1C.[Br-] [QX-314] | – | modulation function similar to that of TTX, but with additional attenuation at lower frequencies
3 | NC1=N[C@H](O)[C@H]2[C@H]3O[C@]4(O)O[C@@H]([C@@H](O)[C@@]2(N1)[C@@H]4O)[C@]3(O)CO [Tetrodotoxin] | low pass filter effect that clearly reduced the high frequency components of the AP | –
